# Measurements from patent US20080287374A1, “BREAST CANCER-RESISTANT PROTEIN INHIBITOR” (KABUSHIKI KAISHA YAKULT HONSHA, priority 2003, published 2008).
# What was measured:
# A549/SN-38-4 cell line = test: Effect of flavonoid in overcoming anticancer drug (SN-38) resistance of A549/SN-38 cell line; type: cell-based, human; settings: concentration of flavonoid for 50% reduction of relative resistance value to SN-38, A549/SN-38-4, 48 hours; for EC50: Homo sapiens
# Procedure: The A549 cell line or the A549/SN-38-4 cell line was suspended in 10% FBS/Ham's F-12, and the resultant suspension was inoculated into a 96-well microplate, followed by culturing at 5% CO2 and 37° C. overnight (2×10^3 cells/50 μL/well). Thereafter, a solution of a flavonoid and SN-38 in 10% FBS/Ham's F-12 (25 μL) was added to each of the wells, followed by culturing at 5% CO2 and 37° C. for 48 hours. After completion of culturing, the number of viable cells was counted by use of TetraColor ONE according to the attached instruction manual.
# MES-SA/Dx5 cell line = test: Effect of flavonoid on multidrug (paclitaxel) resistance of MES-SA/Dx5 cell line; type: cell-based, human; settings: concentration of flavonoid for 50% reduction of relative resistance value to paclitaxel, MES-SA/Dx5 (P-glycoprotein overexpression), 48 hours; for EC50: Homo sapiens, read-out: Resistance overcoming effect EC50
# Procedure: Human uterine cancer MES-SA cell line or MES-SA/Dx5 cell line which had acquired multidrug resistance through overexpression of P-glycoprotein (Cancer Res. 45, 4091-4096 (1985)) was suspended in 10% FBS/DMEM, and the resultant suspension was inoculated into a 96-well microplate, followed by culturing at 5% CO2 and 37° C. overnight (3×10^3 cells/50 μL/well). Thereafter, a solution of a flavonoid and paclitaxel in 10% FBS/DMEM (25 μL) was added to each of the wells, followed by culturing at 5% CO2 and 37° C. for 48 hours. After completion of culturing, the number of viable cells was counted by use of TetraColor ONE according to the attached instruction manual.
EC50 (A549/SN-38-4 cell line) [µg/mL],EC50 (MES-SA/Dx5 cell line) [µg/mL],Resistance overcoming effect EC50 (A549/SN-38-4 cell line) [µg/mL],Resistance overcoming effect EC50 (MES-SA/Dx5 cell line) [µg/mL],SMILES
0.94,> 1,–,–,"COc1ccc(O)c(C(=O)/C=C/c2cccc(OC)c2OC)c1 [Compound 3-9, 2′-Hydroxy-2,3,5′-trimethoxychalcone]"
0.48,> 1,–,–,"COc1cc(O)c2c(c1)OC(c1ccc(O)cc1)CC2=O (centres unmarked) [Compound 2-2, 4′,5-Dihydroxy-7-methoxyflavanone]"
0.23,–,–,–,"COc1cc2oc(-c3ccc(O)cc3O)c(CC=C(C)C)c(=O)c2c(O)c1C=CC(C)C [Compound 1-29, 2′,4′,5-Trihydroxy-7-methoxy-6-(3-methyl-1-butenyl)-3-(3-methyl-2-butenyl)-flavone]"
0.13,> 1,–,–,"O=c1c(O)c(-c2ccc(O)cc2)oc2cc(O)cc(O)c12 [Compound 1-7, 3,4′,5,7-Tetrahydroxyflavone]"
0.33,> 1,–,–,"COc1ccc(-c2coc3cc(O)cc(O)c3c2=O)cc1 [Compound 4-1, 5,7-Dihydroxy-4′-methoxyisoflavone]"
0.03,> 1,–,–,"COc1ccc(-c2cc(=O)c3ccccc3o2)cc1OC [Compound 1-4, 3′,4′-Dimethoxyflavone]"
0.11,> 1,–,–,"COc1ccc(-c2cc(=O)c3c(OC)c(OC)c(OC)cc3o2)cc1O [Compound 1-13, 3′-Hydroxy-4′,5,6,7-tetramethoxyflavone]"
0.046,–,–,–,"COc1cc(O)c2c(=O)c(OC)c(-c3ccc(O)c(OC)c3)oc2c1 [Compound 1-22, 4′,5-Dihydroxy-3,3′,7-trimethoxyflavone]"
0.12,> 1,–,–,"O=c1cc(-c2ccc(O)cc2)oc2cc(O)cc(O)c12 [Compound 1-9, 4′,5,7-Trihydroxyflavone]"
0.074,> 1,–,–,"COc1cc2oc(-c3ccccc3)cc(=O)c2c(O)c1O [Compound 1-12, 5,6-Dihydroxy-7-methoxyflavone]"
0.52,> 1,–,–,"COc1cccc(-c2cc(=O)c3cc(OC)ccc3o2)c1 [Compound 1-21, 3′,6-Dimethoxyflavone]"
0.15,> 1,–,–,"COc1ccc(C2CC(=O)c3c(O)cc(O)cc3O2)cc1O (centres unmarked) [Compound 2-1, 3′,5,7-Trihydroxy-4′-methoxyflavanone]"
0.04,> 1,–,–,"COc1cc(O)c(C(=O)/C=C/c2ccc(O)cc2)c(OC)c1 [Compound 3-1, 2′,4-Dihydroxy-4′,6′-dimethoxychalcone]"
0.97,> 1,–,–,"COc1cc(/C=C/C(=O)c2cc(Cl)cc(Br)c2O)cc(OC)c1OC [Compound 3-10, 3′-Bromo-5′-Chloro-2′-hydroxy-3,4,5-trimethoxychalcone]"
0.017,> 1,–,–,"COc1ccc(-c2cc(=O)c3c(O)c(OC)c(OC)cc3o2)cc1O [Compound 1-6, 3′,5-Dihydroxy-4′,6,7-trimethoxyflavone]"
0.0074,> 1,–,–,"COc1cc(O)c(C(=O)/C=C/c2cc(OC)c(OC)cc2OC)c(OC)c1 [Compound 3-6, 2′-Hydroxy-2,4,4′,5,6′-pentamethoxychalcone]"
0.75,> 1,–,–,"COc1cc(-c2cc(=O)c3c(OC)c(OC)c(OC)c(OC)c3o2)c([N+](=O)[O-])cc1OC [Compound 1-20, 2′-Nitro-4′,5,5′,6,7,8-hexamethoxyflavone]"
0.06,> 1,–,–,"COc1ccc(-c2oc3ccccc3c(=O)c2OC)cc1 [Compound 1-17, 3,4′-Dimethoxyflavone]"
–,–,0.14,–,"COc1cc2oc(-c3ccc(OC4O[C@H](CO)[C@@H](O)[C@H](O)[C@H]4O)cc3)cc(=O)c2c(O)c1OC (some centres unmarked) [Compound 1-26, 5-Hydroxy-6,7-dimethoxyflavone-4′-glucoside]"
0.007,–,–,–,"COc1cc(O)c2c(=O)cc(-c3ccc(OC)c(OC)c3)oc2c1 [Compound 1-23, 5-Hydroxy-3′,4′,7-trimethoxyflavone]"
0.048,> 1,–,–,"COc1cc(-c2cc(=O)c3c(O)cc(O)cc3o2)cc(OC)c1OC [Compound 1-2, 5,7-Dihydroxy-3′,4′,5′-trimethoxyflavone]"

EC50 (A549/SN-38-4 cell line) [µg/mL],EC50 (MES-SA/Dx5 cell line) [µg/mL],Resistance overcoming effect EC50 (A549/SN-38-4 cell line) [µg/mL],Resistance overcoming effect EC50 (MES-SA/Dx5 cell line) [µg/mL],SMILES
0.098,> 1,–,–,"COc1ccc(-c2cc(=O)c3cc(OC)ccc3o2)c(OC)c1 [Compound 1-16, 2′,4′,6-Trimethoxyflavone]"
–,–,0.17,>1.0,"O=c1cc(-c2ccc(O)cc2)oc2cc(OC3O[C@H](CO)[C@@H](O)[C@H](O)[C@H]3O)cc(O)c12 (some centres unmarked) [Compound 1-10, 4′,5-Dihydroxyflavone-7-glucoside]"
0.054,–,–,–,"COc1ccc(-c2oc3c(OC)c(OC)c(OC)c(OC)c3c(=O)c2OC)cc1OC [Compound 1-24, 3,3′,4′,5,6,7,8-Heptamethoxyflavone]"
–,–,0.042,–,"COc1cc(O)c2c(=O)cc(-c3ccc(OC4O[C@H](CO)[C@@H](O)[C@H](O)[C@H]4O)cc3)oc2c1 (some centres unmarked) [Compound 1-27, 5-Hydroxy-7-methoxyflavone-4′-glucoside]"
0.65,> 1,–,–,"COc1cc(/C=C/C(=O)c2cc(Br)cc(Cl)c2O)cc(OC)c1OC [Compound 3-7, 5′-Bromo-3′-chloro-2′-hydroxy-3,4,5-trimethoxychalcone]"
–,–,0.067,–,"CC(C)=CCc1c2c(c(O)c3c1OC(c1ccc(O)cc1)CC3=O)C=CC(C)(C)O2 (centres unmarked) [Compound 2-3, 2H,6H-Benzo[1,2-b:5,4-b′]dipyran-6-one,7,8-dihydro-5-hydroxy-8-(4-hydroxyphenyl)-2,2-dimethyl-10-(3-methyl-2-butenyl)]"
0.081,> 1,–,–,"COc1cc(N)c(-c2cc(=O)c3c(OC)c(OC)c(OC)c(OC)c3o2)cc1OC [Compound 1-5, 2′-Amino-4′,5,5′,6,7,8-hexamethoxyflavone]"
0.79,> 1,–,–,"COc1ccc(/C=C/C(=O)c2c(O)cc(OC)cc2O)cc1 [Compound 3-8, 2′,6′-Dihydroxy-4,4′-dimethoxychalcone]"
0.015,> 1,–,–,"COc1cc2oc(-c3ccc(O)cc3)cc(=O)c2c(O)c1OC [Compound 1-19, 5,4′-Dihydroxy-6,7-dimethoxyflavone]"
0.1,> 1,–,–,"O=c1cc(-c2ccccc2)oc2cc(O)cc(O)c12 [Compound 1-3, 5,7-Dihydroxyflavone]"
0.14,> 1,–,–,"Cc1ccc(-c2cc(=O)c3cc(Cl)cc(Cl)c3o2)cc1 [Compound 1-18, 6,8-Dichloro-4′-methylflavone]"
–,–,0.18,–,"CC(C)=CC1Oc2cc(O)ccc2-c2oc3cc(O)c(C=CC(C)C)c(O)c3c(=O)c21 (centres unmarked) [Compound 5-1, 6H,7H-[1]benzopyrano[4,3-b][1]benzopyran-7-one,3,8,10-trihydroxy-9-(3-methyl-1-butenyl)-6-(2-methyl-1-propenyl)]"
0.017,> 1,–,–,"COc1cc(O)c2c(=O)cc(-c3ccc(O)cc3)oc2c1 [Compound 1-1, 5,4′-Dihydroxy-7-methoxyflavone]"
0.23,> 1,–,–,"COc1ccc(/C=C/C(=O)c2ccccc2)cc1OC [Compound 3-2, 3,4-Dimethoxychalcone]"
–,–,0.84,>1.0,"COc1ccc(-c2coc3cc(OC4O[C@H](CO)[C@@H](O)[C@H](O)[C@H]4O)cc(O)c3c2=O)cc1 (some centres unmarked) [Compound 4-2, 5-Hydroxy-4′-methoxyisoflavone-7-glucoside]"
0.16,> 1,–,–,"COc1ccc(/C=C/C(=O)c2ccccc2O)cc1OC [Compound 3-3, 2′-Hydroxy-3,4-dimethoxychalcone]"
–,–,2.0,–,"CC(C)=CCc1c(-c2ccc(O)cc2O)oc2c3c(cc(O)c2c1=O)OC(C)(C)C=C3 [Compound 1-28, 4H,8H-Benzo[1,2-b:3,4-b′]dipyran-4-one,2-(2,4-dihydroxyphenyl)-5-hydroxy-8,8-dimethyl-3-(3-methyl-2-butenyl)]"
0.46,> 1,–,–,"O=c1cc(-c2ccc(O)c(O)c2)oc2cc(O)cc(O)c12 [Compound 1-8, 3′,4′,5,7-Tetrahydroxyflavone]"
0.53,–,–,–,"COc1ccc(-c2cc(=O)c3c(OC)c(OC)c(OC)cc3o2)cc1OC [Compound 1-25, 3′,4′,5,6,7-Pentamethoxyflavone]"
0.023,> 1,–,–,"CCOc1cc(O)c(C(=O)/C=C/c2ccc(OCC)c(OCC)c2)c(OCC)c1 [Compound 3-4, 2′-Hydroxy-3,4,4′,6′-tetraethoxychalcone]"

SMILES,EC50 (A549/SN-38-4 cell line) [µg/mL],EC50 (MES-SA/Dx5 cell line) [µg/mL],Resistance overcoming effect EC50 (A549/SN-38-4 cell line) [µg/mL],Resistance overcoming effect EC50 (MES-SA/Dx5 cell line) [µg/mL]
"COc1cc(-c2oc3cc(O)cc(O)c3c(=O)c2O)ccc1O [Compound 1-11, 3,4′,5,7-Tetrahydroxy-3′-methoxyflavone]",0.16,> 1,–,–
